Assay results taken from patent US20070271620A1, “Animal model for type II diabetes mellitus and Syndrome X and methods and uses thereof” (priority 2005, published 2007).

Test system: diabetic pigs
Test: Plasma insulin response after a standard meal in diabetic pigs two and nine weeks after STZ infusion
Format: in vivo, pig
Conditions: STZ 140 mg/kg infused for ten minutes, 25 diabetic pigs
Experimental: After 24 hours fasting, a standard meal (523 kJ ME/kg BW^0.75) was fed to the pigs and blood was sampled up to 480 minutes after feeding). Pigs were studied two and nine weeks after streptozotocin (STZ) infusion (140 mg/kg for ten minutes). […] However, as judged by the severity of diabetes (quantified by the 24-hour urinary glucose excretion in relation to standard meal feeding), the recovery/regeneration/hypertrophy of beta-cells takes place in the first three to four weeks after STZ infusion and stops after that time period (see FIG. 6).

CN(N=O)C(=O)N[C@H]1C(O)O[C@H](CO)[C@@H](O)[C@@H]1O (mixture of isomers) [STZ, streptozotocin]
Area under the curve for the plasma insulin response (0-480 minutes after meal), nine weeks compared to two weeks after STZ infusion: two-fold larger
